Data taken from US12590062B2, “PD-1/PD-L1 inhibitors” (Gilead Sciences, Inc., priority 2017, dated 2026).

Experiments:
PD-1/PD-L1 = PD-1/PD-L1 (Homo sapiens, UniProt Q9NZQ7); assay: PD-1/PD-L1 biochemical protein-protein interaction assay (ALPHA); type: binding; conditions: 0.3 nM His tagged PD-L1, 2.5 nM biotinylated Fc-PD-1, 60 minutes at 25° C., read-out: IC50 PD-L1-PD-1 Alpha IC50-mono PD-L1-fcP-D1
Procedure, shortened: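 Compound blockade of the PD-1/PD-L1 extracellular-domain interaction measured as reduced ALPHA signal after 60 min at 25 °C, pH 7.4 Hepes buffer with EDTA, Tween 20 and BSA. Final proteins: His-tagged PD-L1 0.3 nM, biotinylated Fc-PD-1 2.5 nM; four-parameter curve fit gives IC50.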

PD-1/PD-L1 interaction = molecular target: T1, PD-1/PD-L1 interaction (Homo sapiens, UniProt Q9NZQ7); assay: PD-1/PD-L1 NFAT reporter co-culture assay; type: cell-based; conditions: Jurkat PD-1 NFAT-luciferase cells co-cultured with aAPC-PD-L1 CHO cells, 6 hrs at 37° C.; read-out: EC50 NFAT Luciferase
T1 construct: expressed in transfected cells; host or cells: CHO cells (aAPC-PD-L1) co-cultured with Jurkat cells overexpressing PD-1 and an NFAT-luciferase reporter
Procedure, shortened: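 Restoration of TCR-driven NFAT luciferase signal: 6 h, 37 °C co-culture of PD-1 Jurkat reporter cells (pre-mixed with compound) on overnight-seeded PD-L1/anti-CD3 CHO monolayer. ONE-Glo luminescence; dose-response fitted to four-parameter equation for EC50.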

Sequence of PD-1/PD-L1 (Q9NZQ7 19-238 limits assumed): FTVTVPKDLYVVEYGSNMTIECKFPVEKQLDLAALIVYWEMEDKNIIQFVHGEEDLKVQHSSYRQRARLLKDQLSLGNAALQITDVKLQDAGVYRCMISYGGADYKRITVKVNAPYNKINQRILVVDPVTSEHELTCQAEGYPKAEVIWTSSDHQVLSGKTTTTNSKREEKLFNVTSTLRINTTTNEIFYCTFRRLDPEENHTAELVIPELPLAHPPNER
T1 sequence (Q9NZQ7 19-290): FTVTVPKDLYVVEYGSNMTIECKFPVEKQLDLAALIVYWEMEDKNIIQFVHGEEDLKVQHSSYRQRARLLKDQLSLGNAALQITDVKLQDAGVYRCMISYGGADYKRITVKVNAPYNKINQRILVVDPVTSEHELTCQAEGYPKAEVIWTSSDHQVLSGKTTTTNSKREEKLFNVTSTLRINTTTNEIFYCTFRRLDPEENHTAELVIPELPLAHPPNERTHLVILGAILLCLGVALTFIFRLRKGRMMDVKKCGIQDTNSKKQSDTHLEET

IC50 (PD-1/PD-L1) | EC50 (PD-1/PD-L1 interaction) | Structure (SMILES)
2 nM | 1550 nM | Cc1c(COc2cc(OCc3cncc(C#N)c3)c(CNCCO)cc2Cl)cccc1-c1cccc(COc2cc(OCc3cncc(C#N)c3)c(CNC[C@@H](O)CC(=O)O)cc2Cl)c1C [Example 207, (S)-4-((5-Chloro-4-((3′-((2-chloro-5-((5-cyanopyridin-3-yl)methoxy)-4-(((2-hydroxyethyl)amino)methyl)phenoxy)methyl)-2,2′-dimethyl-[1,1′-biphenyl]-3-yl)methoxy)-2-((5-cyanopyridin-3-yl)methoxy)benzyl)amino)-3-hydroxybutanoic acid]
1.4 nM | 10600 nM | Cc1c(COc2cc(OCc3cncc(C#N)c3)c(CNC[C@@H](O)CC(=O)O)cc2Cl)cccc1-c1cncc(COc2cc(OCc3cncc(C#N)c3)c(CNC[C@@H](O)CC(=O)O)cc2Cl)c1 [Example 208, (S)-4-((4-((5-(3-((4-((((S)-3-Carboxy-2-hydroxypropyl)amino)methyl)-2-chloro-5-((5-cyanopyridin-3-yl)methoxy)phenoxy)methyl)-2-methylphenyl)pyridin-3-yl)methoxy)-5-chloro-2-((5-cyanopyridin-3-yl)methoxy)benzyl)amino)-3-hydroxybutanoic acid]
1.26 nM | 413 nM | Cc1c(COc2cc(OCc3cncc(C#N)c3)c(CNCC[C@H](O)C(=O)O)cc2Cl)cccc1-c1cccc(COc2cc(OCc3cncc(C#N)c3)c(CNCC[C@H](O)C(=O)O)cc2Cl)c1C [Example 215, (2S,2′S)-4,4′-((((((2,2′-dimethyl-[1,1′-biphenyl]-3,3′-diyl)bis(methylene))bis(oxy))bis(5-chloro-2-((5-cyanopyridin-3-yl)methoxy)-4,1-phenylene))bis(methylene))bis(azanediyl))bis(2-hydroxybutanoic acid)]
0.2 nM | 558 nM | Cc1c(COc2cc(OCc3ccnc(C#N)c3)c(CNC[C@@H](O)CC(=O)O)cc2Cl)cccc1-c1cccc(COc2cc(OCc3ccnc(C#N)c3)c(CNC[C@@H](O)CC(=O)O)cc2Cl)c1C [Example 219, (3S,3′S)-4,4′-((((((2,2′-dimethyl-[1,1′-biphenyl]-3,3′-diyl)bis(methylene))bis(oxy))bis(5-chloro-2-((2-cyanopyridin-4-yl)methoxy)-4,1-phenylene))bis(methylene))bis(azanediyl))bis(3-hydroxybutanoic acid)]
2 nM | 177 nM | Cc1c(COc2cc(OCc3cc(C#N)cc(C#N)c3)c(CNC[C@@H](O)CC(=O)O)cc2Cl)cccc1-c1cccc(COc2cc(OCc3cc(C#N)cc(C#N)c3)c(CNC[C@@H](O)CC(=O)O)cc2Cl)c1C [Example 220, (3S,3′S)-4,4′-((((((2,2′-dimethyl-[1,1′-biphenyl]-3,3′-diyl)bis(methylene))bis(oxy))bis(5-chloro-2-((3,5-dicyanobenzyl)oxy)-4,1-phenylene))bis(methylene))bis(azanediyl))bis(3-hydroxybutanoic acid)]
1.5 nM | 274 nM | Cc1c(COc2cc(OCc3cccc(C#N)n3)c(CNC[C@@H](O)CC(=O)O)cc2Cl)cccc1-c1cccc(COc2cc(OCc3cccc(C#N)n3)c(CNC[C@@H](O)CC(=O)O)cc2Cl)c1C [Example 221, (3S,3′S)-4,4′-((((((2,2′-dimethyl-[1,1′-biphenyl]-3,3′-diyl)bis(methylene))bis(oxy))bis(5-chloro-2-((6-cyanopyridin-2-yl)methoxy)-4,1-phenylene))bis(methylene))bis(azanediyl))bis(3-hydroxybutanoic acid)]
0.3 nM | 856 nM | Cc1c(COc2cc(OCc3cncc(C(N)=O)c3)c(CNC[C@@H](O)CC(=O)O)cc2Cl)cccc1-c1cccc(COc2cc(OCc3cncc(C(N)=O)c3)c(CNC[C@@H](O)CC(=O)O)cc2Cl)c1C [Example 222, (3S,3′S)-4,4′-((((((2,2′-dimethyl-[1,1′-biphenyl]-3,3′-diyl)bis(methylene))bis(oxy))bis(2-((5-carbamoylpyridin-3-yl)methoxy)-5-chloro-4,1-phenylene))bis(methylene))bis(azanediyl))bis(3-hydroxybutanoic acid)]
34.6 nM | ≥ 50000 nM | Cc1c(COc2ccc(CNCCO)cc2C(F)(F)F)cccc1-c1cccc(COc2ccc(CNCCO)cc2C(F)(F)F)c1C [Example 223, 2,2′-((((((2,2′-dimethyl-[1,1′-biphenyl]-3,3′-diyl)bis(methylene))bis(oxy))bis(3-(trifluoromethyl)-4,1-phenylene))bis(methylene))bis(azanediyl))bis(ethan-1-ol)]
1.8 nM | 24900 nM | Cc1c(COc2ccc(CNC[C@@H](O)CC(=O)O)cc2C(F)(F)F)cccc1-c1cccc(COc2ccc(CNC[C@@H](O)CC(=O)O)cc2C(F)(F)F)c1C [Example 224, (3S,3′S)-4,4′-((((((2,2′-dimethyl-[1,1′-biphenyl]-3,3′-diyl)bis(methylene))bis(oxy))bis(3-(trifluoromethyl)-4,1-phenylene))bis(methylene))bis(azanediyl))bis(3-hydroxybutanoic acid)]
0.9 nM | 2120 nM | COc1nc(/C=C/c2cccc(-c3cccc(/C=C/c4ccc(CNC[C@@H](O)CC(=O)O)c(OC)n4)c3C)c2C)ccc1CNC[C@@H](O)CC(=O)O [Example 238, (3S,3′S)-4,4′-(((((1E,1′E)-(2,2′-dimethyl-[1,1′-biphenyl]-3,3′-diyl)bis(ethene-2,1-diyl))bis(2-methoxypyridine-6,3-diyl))bis(methylene))bis(azanediyl))bis(3-hydroxybutanoic acid)]
8.1 nM | 1120 nM | COc1nc(/C=C/c2cccc(-c3cccc(/C=C/c4nc(OC)c(CNC[C@@H](O)CC(=O)O)cc4Cl)c3C)c2C)c(Cl)cc1CNC[C@@H](O)CC(=O)O [Example 239, (3S,3′S)-4,4′-(((((1E,1′E)-(2,2′-dimethyl-[1,1′-biphenyl]-3,3′-diyl)bis(ethene-2,1-diyl))bis(5-chloro-2-methoxypyridine-6,3-diyl))bis(methylene))bis(azanediyl))bis(3-hydroxybutanoic acid)]
1 nM | 1200 nM | Cc1cc(OCc2cccc(-c3cccc(COc4cc(C)c(CNC[C@@H](O)CC(=O)O)c(OCc5cncc(C#N)c5)c4)c3C)c2C)cc(OCc2cncc(C#N)c2)c1CNC[C@@H](O)CC(=O)O [Example 246, (3S,3′S)-4,4′-((((((2,2′-dimethyl-[1,1′-biphenyl]-3,3′-diyl)bis(methylene))bis(oxy))bis(2-((5-cyanopyridin-3-yl)methoxy)-6-methyl-4,1-phenylene))bis(methylene))bis(azanediyl))bis(3-hydroxybutanoic acid)]
63.6 nM | 7490 nM | CC(=O)NCCNCc1ccc(OCc2cccc(-c3cccc(COc4ccc(CNCCNC(C)=O)c(-c5cncc(C#N)c5)c4)c3C)c2C)cc1-c1cncc(C#N)c1 [Example 250, N,N′-(((((((2,2′-dimethyl-[1,1′-biphenyl]-3,3′-diyl)bis(methylene))bis(oxy))bis(2-(5-cyanopyridin-3-yl)-4,1-phenylene))bis(methylene))bis(azanediyl))bis(ethane-2,1-diyl))diacetamide]
2 nM | 25900 nM | Cc1c(COc2ccc(CNC[C@@H](O)CC(=O)O)c(OCc3cncc(C#N)c3)n2)cccc1-c1cccc(COc2ccc(CNC[C@@H](O)CC(=O)O)c(=O)n2Cc2cncc(C#N)c2)c1C [Example 251, (S)-4-(((6-((3′-(((5-((((S)-3-carboxy-2-hydroxypropyl)amino)methyl)-1-((5-cyanopyridin-3-yl)methyl)-6-oxo-1,6-dihydropyridin-2-yl)oxy)methyl)-2,2′-dimethyl-[1,1′-biphenyl]-3-yl)methoxy)-2-((5-cyanopyridin-3-yl)methoxy)pyridin-3-yl)methyl)amino)-3-hydroxybutanoic acid]
0.3 nM | 333 nM | Cc1c(COc2nc(OCc3cncc(C#N)c3)c(CNC[C@H](O)CC(=O)O)cc2Br)cccc1-c1cccc(COc2nc(OCc3cncc(C#N)c3)c(CNC[C@H](O)CC(=O)O)cc2Br)c1C [Example 252, (3R,3′R)-4,4′-((((((2,2′-dimethyl-[1,1′-biphenyl]-3,3′-diyl)bis(methylene))bis(oxy))bis(5-bromo-2-((5-cyanopyridin-3-yl)methoxy)pyridine-6,3-diyl))bis(methylene))bis(azanediyl))bis(3-hydroxybutanoic acid)]
4.6 nM | 304 nM | COc1ccc(COc2nc(OCc3cccc(-c4cccc(COc5nc(OCc6ccc(OC)nc6)c(CNC[C@@H](O)CC(=O)O)cc5Br)c4C)c3C)c(Br)cc2CNC[C@@H](O)CC(=O)O)cn1 [Example 253, (3S,3′S)-4,4′-((((((2,2′-dimethyl-[1,1′-biphenyl]-3,3′-diyl)bis(methylene))bis(oxy))bis(5-bromo-2-((6-methoxypyridin-3-yl)methoxy)pyridine-6,3-diyl))bis(methylene))bis(azanediyl))bis(3-hydroxybutanoic acid)]
20.8 nM | 689 nM | Cc1c(COc2cc(OCc3cncc(C#N)c3)c(CNCCO)cc2Br)cccc1-c1cccc(COc2cc(OCc3cncc(C#N)c3)c(CNCCO)cc2Br)c1C [Example 254, 5,5′-((((((2,2′-dimethyl-[1,1′-biphenyl]-3,3′-diyl)bis(methylene))bis(oxy))bis(4-bromo-6-(((2-hydroxyethyl)amino)methyl)-3,1-phenylene))bis(oxy))bis(methylene))dinicotinonitrile]
